Patent US20250041245A1, “ENDOXIFEN FOR TREATMENT OF CANCERS” (Atossa Therapeutics, Inc., priority 2021, published 2025)
“And” between values parts separate entries of the source, which are not always exact repeats. Equal entries are not always repeated. “Also recorded” adds a separate entry of the source.

Key:
Assay type in all cases: cell-based, human
Design in all cases: key to Personalization Category: Personalization categories range from High, Good, Moderate, Low, to None; Personalization categories range from High, Good, Moderate, Low, to None; Personalization categories range from High, Good, Moderate, Low, to None; Personalization categories range from High, Good, Moderate, Low, to None; Personalization categories range from High, Good, Moderate, Low, to None; key to Sensitivity Category: Sensitivity categories range from High, Good, Moderate, Low, to None; Sensitivity categories range from High, Good, Moderate, Low, to None; Sensitivity categories range from High, Good, Moderate, Low, to None; Sensitivity categories range from High, Good, Moderate, Low, to None; Sensitivity categories range from High, Good, Moderate, Low, to None; AUC: unit not given beside the values
[1] = test system: patient-derived tumor organoids (PDTOs), rectal cancer; experiment: Endoxifen screen in PDTOs: rectal cancer
Protocol: (§1) This example describes screening endoxifen in patient-derived tumor organoids. Endoxifen was tested as a single agent on tumor organoids derived from patients diagnosed with various cancer types using a personalized cancer treatment screening assay (PARIS© Test, SEngine Precision Medicine). The screen utilized patient-derived tumor organoids (PDTOs) along with high-throughput drug screening and machine learning-guided data analysis to quantify the efficacy of endoxifen against samples derived from individual patients diagnosed with various cancer types. PDTOs are self-organizing, three-dimensional organoid structures that recapitulate structural, functional, and genomic aspects of in vivo organs. The PDTOs were grown in culture from patient tumor biopsy samples.
(§2) Fresh patient biopsy samples received following surgery were cleaned and purified. Immune cells (e.g., lymphocytes, blood cells), cancer-associated fibroblasts, and other non-tumor cells were removed to establish pure PDTOs for endoxifen testing. The tumor organoids were grown and expanded by supplying organ- and patient-specific growth factors and nutrients. The PDTOs were treated with increasing concentrations of endoxifen ranging from about 30 nM to about 10 μM, and the drug response was measured using a luminescence readout. A lower luminescence was indicative of a stronger drug response.
(§3) The results were analyzed using a “SEngine Precision Medicine” (SPM) scoring system to assess the sensitivity and personalization of each tumor organoid to endoxifen. The SPM score correlates with clinical outcomes, such that a higher SPM score for a specific PDTO-drug combination predicts a more favorable clinical outcome following treatment of the corresponding patient with the tested drug.
(§4) This example describes testing endoxifen efficacy against 17 distinct cancer types in patient-derived tumor organoids (PDTOs). Screening of PDTOs was performed as described in EXAMPLE 1. For each PDTO sample, the drug response was measured using a luminescent readout over a range of endoxifen concentrations. The drug response was evaluated based on the area under the fitted dose response curve (AUC) and the SPM scoring system. AUC values were normalized for each PDTO. Briefly, data points at each drug concentration were first normalized to a negative control, then a dose response drug curve was approximated using a four-parameter logistic model fitted to the normalized data points. The area under the curve was calculated from the normalized curve. Normalization allowed for comparison of AUC values between patient samples. The SPM scores were based on machine learning models that incorporate values for how well the drug kill patient cells (sensitivity metric), the relative drug responses of a patient to all other patients in a sample database (personalization metric), and knowledge of clinical outcomes for patients that had been evaluated with the personalized cancer screening assay (PARIS® Test, SEngine Precision Medicine).
(§5) The SPM scoring system evaluated whether a PDTO was unresponsive or responsive to endoxifen and the degree of drug response for PDTOs that were responsive to endoxifen. […] The sensitivity category was determined from the sensitivity metric and is a measure of overall cell death of a patient's cells in response to endoxifen at six concentrations. […]

[2] = test system: patient-derived tumor organoids (PDTOs), colorectal cancer; experiment: Endoxifen screen in PDTOs: colorectal cancer; conditions: each line one patient sample
Protocol: as §1, §2, §3, §4
The SPM scoring system evaluated whether a PDTO was unresponsive or responsive to endoxifen and the degree of drug response for PDTOs that were responsive to endoxifen. The SPM scoring system generated metrics an SPM score, predictive of clinical outcome, overall drug response (response category), drug sensitivity (sensitivity category), and drug personalization (personalization category). SPM scores ranged from 1-15, corresponding to the following drug response categories: no response (SPM 1-8), low response (SPM 9), moderate response (SPM 10-11), good response (SPM 12-13), and exceptional response (SPM 14-15). […] Moderate to good drug responses (SPM 10-13) may indicate that a drug has clinical relevance, possibly in combination with other drugs. The sensitivity category was determined from the sensitivity metric and is a measure of overall cell death of a patient's cells in response to endoxifen at six concentrations. […]

[3] = test system: patient-derived tumor organoids (PDTOs), thyroid cancer; experiment: Endoxifen screen in PDTOs: thyroid cancer
Protocol: as §1, §2, §3, §4, §5

IC50 ([1]; Homo sapiens, Patient 19, four-parameter logistic fit): 3.9 µM
IC50 ([2]; four-parameter logistic fit): 7.16 µM and 9.23 µM and 7.23 µM and 5.61 µM and 10 µM and 5.65 µM and 4.72 µM and 3.62 µM and 8.86 µM and 5.67 µM and 6.74 µM and 9.61 µM and 9.09 µM
IC50 ([3]; Homo sapiens, patient 4, four-parameter logistic fit): 7.1 µM
Compound: CC/C(=C(\c1ccc(O)cc1)c1ccc(OCCNC)cc1)c1ccccc1 [Endoxifen, 4-hydroxy-N-desmethyltamoxifen]
Personalization Category ([1]; Patient 19): Low
Sensitivity Category ([1]; Patient 19): Low
AUC ([1]; Patient 19, normalized area under fitted dose response curve): 0.8614
SPM Score ([1]; Patient 19, score range 1-15): 9
Personalization Category [2]: None and Low and Good and Moderate
Response Category [2]: None (no response (SPM 1-8)); also recorded: Low (low response (SPM 9)); also recorded: Moderate (moderate response (SPM 10-11))
Sensitivity Category [2]: None and Low
AUC ([2]; normalized area under fitted dose response curve): 0.9517 and 0.9919 and 1.0338 and 0.9902 and 1.0377 and 0.9305 and 0.8841 and 0.8215 and 0.9346 and 0.8357 and 0.8866 and 0.9755 and 0.9804 and 0.9752 and 1.0467
SPM Score ([2]; score range 1-15): 1 (9×) and 3 and 5 and 9 (2×) and 11 and 10
Personalization Category ([3]; patient 4): None
Sensitivity Category ([3]; patient 4): None
AUC ([3]; patient 4, normalized area under fitted dose response curve): 0.9109
SPM Score ([3]; patient 4, score range 1-15): 1
